Test results as given in the kinase profiling compilation of Christmann-Franck et al. (2016).

Legend:
Assay in all cases: KINOMEscan competition binding
Conditions in all cases: compound 10.0 µM
MYLK3 (human) = MYLK3 (human) (UniProt Q32MK0)
[1] = system: PIK3CA (human), P42336 [E545K]
MET (human) = MET (human) (UniProt P08581)
PIK3CG (human) = PIK3CG (human) (UniProt P48736)
[2] = system: ABL1 (human), P00519 [E255K]
CDK2 (human) = CDK2 (human) (UniProt P24941)
KIT (human) = KIT (human) (UniProt P10721)
CDKL5 (human) = CDKL5 (human) (UniProt O76039)
Sequence of CDKL5 (human) (O76039 whole entry, looked up): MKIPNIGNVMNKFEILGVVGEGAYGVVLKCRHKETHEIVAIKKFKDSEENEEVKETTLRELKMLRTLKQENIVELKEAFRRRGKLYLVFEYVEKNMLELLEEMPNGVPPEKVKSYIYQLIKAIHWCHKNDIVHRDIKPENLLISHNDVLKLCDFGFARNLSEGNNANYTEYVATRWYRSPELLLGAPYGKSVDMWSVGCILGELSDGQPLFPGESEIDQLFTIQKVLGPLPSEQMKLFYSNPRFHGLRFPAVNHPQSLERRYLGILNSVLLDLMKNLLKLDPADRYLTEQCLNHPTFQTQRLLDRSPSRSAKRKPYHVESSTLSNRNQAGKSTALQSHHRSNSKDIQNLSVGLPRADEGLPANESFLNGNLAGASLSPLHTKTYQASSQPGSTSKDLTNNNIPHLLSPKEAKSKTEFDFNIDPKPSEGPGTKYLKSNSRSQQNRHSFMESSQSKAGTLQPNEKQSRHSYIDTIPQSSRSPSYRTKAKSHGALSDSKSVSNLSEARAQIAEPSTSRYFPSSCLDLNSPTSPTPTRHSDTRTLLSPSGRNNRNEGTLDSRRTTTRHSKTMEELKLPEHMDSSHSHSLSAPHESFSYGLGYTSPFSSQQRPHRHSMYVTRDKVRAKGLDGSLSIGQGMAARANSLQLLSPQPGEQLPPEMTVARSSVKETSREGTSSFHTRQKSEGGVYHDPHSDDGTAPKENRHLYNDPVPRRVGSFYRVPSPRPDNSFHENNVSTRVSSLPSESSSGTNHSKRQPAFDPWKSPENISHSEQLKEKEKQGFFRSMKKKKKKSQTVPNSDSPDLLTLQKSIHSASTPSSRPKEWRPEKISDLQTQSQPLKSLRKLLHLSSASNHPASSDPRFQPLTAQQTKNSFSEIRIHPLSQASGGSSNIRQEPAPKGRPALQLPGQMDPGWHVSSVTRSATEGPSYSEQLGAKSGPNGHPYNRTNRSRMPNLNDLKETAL

PRKCI (human) = PRKCI (human) (UniProt P41743)
CPK1 (P.falciparum) = system: CPK1 (P.falciparum)
CASK (human) = CASK (human) (UniProt O14936)
PI4KB (human) = PI4KB (human) (UniProt Q9UBF8)
Sequence of PI4KB (human) (Q9UBF8 whole entry, looked up): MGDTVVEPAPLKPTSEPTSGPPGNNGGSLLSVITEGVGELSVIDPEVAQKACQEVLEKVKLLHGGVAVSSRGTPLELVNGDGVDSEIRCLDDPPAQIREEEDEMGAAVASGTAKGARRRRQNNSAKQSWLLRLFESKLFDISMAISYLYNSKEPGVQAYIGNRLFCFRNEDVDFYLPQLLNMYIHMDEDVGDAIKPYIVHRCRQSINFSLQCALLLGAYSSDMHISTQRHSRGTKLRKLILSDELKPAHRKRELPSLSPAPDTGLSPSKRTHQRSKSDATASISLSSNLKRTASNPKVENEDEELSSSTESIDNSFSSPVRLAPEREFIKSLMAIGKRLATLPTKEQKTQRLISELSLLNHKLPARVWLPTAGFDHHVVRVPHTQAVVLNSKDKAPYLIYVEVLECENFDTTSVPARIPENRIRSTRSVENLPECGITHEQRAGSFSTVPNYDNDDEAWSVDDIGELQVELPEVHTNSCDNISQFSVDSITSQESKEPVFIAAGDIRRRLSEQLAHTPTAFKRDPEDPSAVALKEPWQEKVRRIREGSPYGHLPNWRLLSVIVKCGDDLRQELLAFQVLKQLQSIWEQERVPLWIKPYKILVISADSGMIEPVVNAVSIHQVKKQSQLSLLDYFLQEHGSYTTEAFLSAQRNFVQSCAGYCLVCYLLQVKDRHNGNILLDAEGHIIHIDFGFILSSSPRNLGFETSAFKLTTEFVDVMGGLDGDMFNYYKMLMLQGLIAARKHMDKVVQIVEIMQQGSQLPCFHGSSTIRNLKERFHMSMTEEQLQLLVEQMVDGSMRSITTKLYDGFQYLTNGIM

HIPK4 (human) = HIPK4 (human) (UniProt Q8NE63)
Sequence of HIPK4 (human) (Q8NE63 whole entry, looked up): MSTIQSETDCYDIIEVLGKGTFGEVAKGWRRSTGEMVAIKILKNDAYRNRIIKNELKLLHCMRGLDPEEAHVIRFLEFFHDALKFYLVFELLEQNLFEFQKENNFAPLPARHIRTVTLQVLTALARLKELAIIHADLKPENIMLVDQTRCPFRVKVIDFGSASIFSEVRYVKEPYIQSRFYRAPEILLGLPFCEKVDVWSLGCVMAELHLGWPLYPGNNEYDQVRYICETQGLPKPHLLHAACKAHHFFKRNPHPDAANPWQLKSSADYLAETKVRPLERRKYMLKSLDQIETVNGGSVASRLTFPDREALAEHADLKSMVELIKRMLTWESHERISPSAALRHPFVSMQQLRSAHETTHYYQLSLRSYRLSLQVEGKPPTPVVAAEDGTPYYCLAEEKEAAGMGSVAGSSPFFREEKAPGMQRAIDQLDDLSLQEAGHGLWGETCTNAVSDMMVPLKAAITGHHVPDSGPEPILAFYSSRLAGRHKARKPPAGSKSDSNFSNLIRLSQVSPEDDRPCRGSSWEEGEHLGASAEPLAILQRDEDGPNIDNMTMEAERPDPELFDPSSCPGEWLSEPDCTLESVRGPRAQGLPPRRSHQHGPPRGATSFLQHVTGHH

MAST1 (human) = MAST1 (human) (UniProt Q9Y2H9)
CDK4 CCND1 (human) = CDK4 CCND1 (human) (UniProt P11802+P24385)
MAP2K5 (human) = MAP2K5 (human) (UniProt Q13163)
SBK1 (human) = SBK1 (human) (UniProt Q52WX2)
VRK2 (human) = VRK2 (human) (UniProt Q86Y07)
HIPK2 (human) = HIPK2 (human) (UniProt Q9H2X6)
Sequence of HIPK2 (human) (Q9H2X6 whole entry, looked up): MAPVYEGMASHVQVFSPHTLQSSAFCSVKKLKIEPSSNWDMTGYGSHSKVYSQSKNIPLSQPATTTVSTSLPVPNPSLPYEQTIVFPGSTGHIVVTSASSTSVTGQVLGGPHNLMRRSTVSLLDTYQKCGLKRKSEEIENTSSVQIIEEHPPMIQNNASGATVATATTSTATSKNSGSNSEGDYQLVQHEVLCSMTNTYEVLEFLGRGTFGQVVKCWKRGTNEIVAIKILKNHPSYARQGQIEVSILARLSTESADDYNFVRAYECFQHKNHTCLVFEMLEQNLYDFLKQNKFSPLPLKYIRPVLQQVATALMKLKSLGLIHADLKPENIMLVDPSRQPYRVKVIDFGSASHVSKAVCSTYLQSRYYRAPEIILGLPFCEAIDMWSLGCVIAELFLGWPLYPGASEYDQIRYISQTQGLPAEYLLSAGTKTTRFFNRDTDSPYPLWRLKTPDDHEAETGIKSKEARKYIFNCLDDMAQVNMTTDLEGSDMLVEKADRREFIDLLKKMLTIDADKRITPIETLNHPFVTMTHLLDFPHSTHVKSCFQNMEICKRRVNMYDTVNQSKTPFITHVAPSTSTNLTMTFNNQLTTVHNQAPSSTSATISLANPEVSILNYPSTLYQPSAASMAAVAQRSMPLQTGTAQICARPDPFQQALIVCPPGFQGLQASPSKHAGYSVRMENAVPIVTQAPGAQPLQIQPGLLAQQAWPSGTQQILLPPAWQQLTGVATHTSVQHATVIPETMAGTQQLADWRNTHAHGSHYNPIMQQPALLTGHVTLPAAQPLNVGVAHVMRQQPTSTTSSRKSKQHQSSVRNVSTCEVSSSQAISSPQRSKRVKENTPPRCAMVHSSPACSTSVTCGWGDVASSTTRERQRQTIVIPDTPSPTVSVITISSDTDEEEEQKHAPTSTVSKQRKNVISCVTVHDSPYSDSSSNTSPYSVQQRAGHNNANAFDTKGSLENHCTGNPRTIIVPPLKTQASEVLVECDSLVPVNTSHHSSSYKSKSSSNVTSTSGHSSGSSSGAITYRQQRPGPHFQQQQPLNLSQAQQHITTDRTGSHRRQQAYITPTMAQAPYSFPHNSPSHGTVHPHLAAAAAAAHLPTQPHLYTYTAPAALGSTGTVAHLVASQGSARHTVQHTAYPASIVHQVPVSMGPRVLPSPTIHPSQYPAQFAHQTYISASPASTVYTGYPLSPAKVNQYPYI

NEK3 (human) = NEK3 (human) (UniProt P51956)
[3] = system: PIK3CA (human), P42336 [C420R]
TAOK2 (human) = TAOK2 (human) (UniProt Q9UL54)
GRK4 (human) = GRK4 (human) (UniProt P32298)
SGK3 (human) = SGK3 (human) (UniProt Q96BR1)
IRAK1 (human) = IRAK1 (human) (UniProt P51617)
ERBB3 (human) = ERBB3 (human) (UniProt P21860)
BRAF (human) = BRAF (human) (UniProt P15056)
[4] = system: PIK3CA (human), P42336 [E545A]
ICK (human) = ICK (human) (UniProt Q9UPZ9)
EPHB6 (human) = EPHB6 (human) (UniProt O15197)
ROCK1 (human) = ROCK1 (human) (UniProt Q13464)
CDKL1 (human) = CDKL1 (human) (UniProt Q00532)
NIM1 (human) = NIM1 (human) (UniProt Q8IY84)
Sequence of NIM1 (human) (Q8IY84 whole entry, looked up): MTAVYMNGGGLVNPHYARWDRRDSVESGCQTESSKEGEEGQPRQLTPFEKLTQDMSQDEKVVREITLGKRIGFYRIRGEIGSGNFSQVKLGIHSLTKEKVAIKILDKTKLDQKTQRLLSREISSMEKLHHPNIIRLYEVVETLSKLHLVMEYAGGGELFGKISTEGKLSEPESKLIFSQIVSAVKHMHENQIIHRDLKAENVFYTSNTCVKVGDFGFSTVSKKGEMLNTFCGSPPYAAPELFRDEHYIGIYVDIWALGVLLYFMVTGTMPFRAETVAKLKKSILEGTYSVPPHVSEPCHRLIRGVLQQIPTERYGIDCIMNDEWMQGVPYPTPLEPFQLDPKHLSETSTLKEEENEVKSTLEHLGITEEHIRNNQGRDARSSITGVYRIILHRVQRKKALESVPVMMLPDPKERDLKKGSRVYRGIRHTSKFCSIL

IRAK4 (human) = IRAK4 (human) (UniProt Q9NWZ3)
DYRK1A (human) = DYRK1A (human) (UniProt Q13627)
HUNK (human) = HUNK (human) (UniProt P57058)
MAP3K13 (human) = MAP3K13 (human) (UniProt O43283)
[5] = system: PIK3CA (human), P42336 [H1047Y]

Sequence of MYLK3 (human) (Q32MK0 whole entry, looked up): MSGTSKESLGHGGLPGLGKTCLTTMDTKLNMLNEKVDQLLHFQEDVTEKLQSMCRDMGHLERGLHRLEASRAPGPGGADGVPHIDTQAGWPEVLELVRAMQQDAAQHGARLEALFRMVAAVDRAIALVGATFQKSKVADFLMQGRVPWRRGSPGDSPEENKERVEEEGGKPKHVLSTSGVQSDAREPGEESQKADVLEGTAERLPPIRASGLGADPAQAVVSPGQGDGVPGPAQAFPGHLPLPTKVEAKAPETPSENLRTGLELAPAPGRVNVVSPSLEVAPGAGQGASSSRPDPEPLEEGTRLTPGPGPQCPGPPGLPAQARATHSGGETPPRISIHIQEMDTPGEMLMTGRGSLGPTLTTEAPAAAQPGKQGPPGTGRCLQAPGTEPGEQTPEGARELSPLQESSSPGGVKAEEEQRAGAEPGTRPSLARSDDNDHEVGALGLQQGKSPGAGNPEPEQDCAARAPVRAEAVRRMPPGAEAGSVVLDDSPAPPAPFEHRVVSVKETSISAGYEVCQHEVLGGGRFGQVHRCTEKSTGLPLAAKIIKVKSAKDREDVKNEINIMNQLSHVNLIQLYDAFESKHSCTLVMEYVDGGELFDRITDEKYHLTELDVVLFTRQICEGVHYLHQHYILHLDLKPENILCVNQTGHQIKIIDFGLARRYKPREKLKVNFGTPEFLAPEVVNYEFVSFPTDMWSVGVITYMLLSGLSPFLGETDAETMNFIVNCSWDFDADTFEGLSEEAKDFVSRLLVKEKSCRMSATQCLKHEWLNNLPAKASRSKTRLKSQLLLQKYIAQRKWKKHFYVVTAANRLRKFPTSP

kinase still bound, per cent of control (MYLK3 (human)) [%] | kinase still bound, per cent of control [1] [%] | kinase still bound, per cent of control (MET (human)) [%] | kinase still bound, per cent of control (PIK3CG (human)) [%] | kinase still bound, per cent of control [2] [%] | kinase still bound, per cent of control (CDK2 (human)) [%] | kinase still bound, per cent of control (KIT (human)) [%] | kinase still bound, per cent of control (CDKL5 (human)) [%] | kinase still bound, per cent of control (PI4KB (human)) [%] | kinase still bound, per cent of control (HIPK4 (human)) [%] | kinase still bound, per cent of control (MAST1 (human)) [%] | kinase still bound, per cent of control (SBK1 (human)) [%] | kinase still bound, per cent of control (HIPK2 (human)) [%] | kinase still bound, per cent of control (GRK4 (human)) [%] | kinase still bound, per cent of control (IRAK1 (human)) [%] | kinase still bound, per cent of control (ERBB3 (human)) [%] | kinase still bound, per cent of control (BRAF (human)) [%] | kinase still bound, per cent of control (ICK (human)) [%] | kinase still bound, per cent of control (EPHB6 (human)) [%] | kinase still bound, per cent of control (ROCK1 (human)) [%] | SMILES | other results
100 | 100 | 100 | 100 | 100 | 100 | 100 |  |  |  |  |  |  |  |  |  |  |  |  |  | COc1cc(C(=O)NC2CCN(C)CC2)ccc1Nc1ncc2c(n1)N(C1CCCC1)C(C)CC(=O)N2C (stereo not given) | 
100 | 100 | 100 | 100 | 100 | 100 | 0 |  |  |  |  |  |  |  |  |  | 2 |  |  |  | Cc1ccc(C(=O)Nc2cccc(C(F)(F)F)c2)cc1Nc1cncc(C(N)=O)c1 | 
 | 100 |  | 100 | 100 | 100 | 100 |  |  |  |  |  |  |  |  |  | 100 |  |  |  | CC[C@@H]1C(=O)N(C)c2cnc(Nc3ccc(C(=O)NC4CCN(C)CC4)cc3OC)nc2N1C1CCCC1 | 
100 | 3 |  | 23 | 100 | 100 | 100 | 100 | 100 | 100 | 100 | 100 | 100 | 100 | 100 | 100 | 100 | 100 | 100 | 100 | Cn1c(=O)n(-c2ccc(C(C)(C)C#N)cc2)c2c3cc(-c4cnc5ccccc5c4)ccc3ncc21 | kinase still bound, per cent of control [5]: 6.2%; kinase still bound, per cent of control (NIM1 (human)): 100%; kinase still bound, per cent of control (DYRK1A (human)): 100%; kinase still bound, per cent of control (HUNK (human)): 100%; kinase still bound, per cent of control (MAP3K13 (human)): 100%
100 | 100 | 100 | 100 | 100 | 100 | 100 | 9.4 | 100 | 14 | 100 | 100 | 15 | 100 | 100 | 100 | 100 | 2.2 | 100 | 100 | OCCCNc1cc(-c2ccnc(Nc3cccc(Cl)c3)n2)ccn1 | kinase still bound, per cent of control [3]: 100%; kinase still bound, per cent of control [5]: 100%; kinase still bound, per cent of control [4]: 100%; kinase still bound, per cent of control (NIM1 (human)): 100%; kinase still bound, per cent of control (DYRK1A (human)): 7.8%; kinase still bound, per cent of control (HUNK (human)): 100%; kinase still bound, per cent of control (MAP3K13 (human)): 100%
100 | 100 | 20 | 100 | 100 | 100 | 34 |  |  |  |  |  |  |  |  |  | 100 |  |  |  | C=CC(=O)Nc1cccc(Oc2nc(Nc3ccc(N4CCN(C)CC4)cc3OC)ncc2Cl)c1 | 
100 | 100 | 100 | 100 | 100 | 100 | 100 | 100 | 100 | 100 | 100 | 100 | 100 | 100 | 100 | 100 |  | 100 | 100 | 100 | COc1cc(C(=O)NC2CCN(C)CC2)ccc1Nc1ncc2c(n1)N(C1CCCC1)CCC(=O)N2C(C)C | kinase still bound, per cent of control [3]: 100%; kinase still bound, per cent of control [5]: 100%; kinase still bound, per cent of control [4]: 100%; kinase still bound, per cent of control (NIM1 (human)): 100%; kinase still bound, per cent of control (DYRK1A (human)): 100%; kinase still bound, per cent of control (HUNK (human)): 100%; kinase still bound, per cent of control (MAP3K13 (human)): 100%

SMILES | kinase still bound, per cent of control (MYLK3 (human)) [%] | kinase still bound, per cent of control [1] [%] | kinase still bound, per cent of control (MET (human)) [%] | kinase still bound, per cent of control (PIK3CG (human)) [%] | kinase still bound, per cent of control [2] [%] | kinase still bound, per cent of control (CDK2 (human)) [%] | kinase still bound, per cent of control (KIT (human)) [%] | kinase still bound, per cent of control (CDKL5 (human)) [%] | kinase still bound, per cent of control (PI4KB (human)) [%] | kinase still bound, per cent of control (HIPK4 (human)) [%] | kinase still bound, per cent of control (MAST1 (human)) [%] | kinase still bound, per cent of control (SBK1 (human)) [%] | kinase still bound, per cent of control (HIPK2 (human)) [%] | kinase still bound, per cent of control (GRK4 (human)) [%] | kinase still bound, per cent of control (IRAK1 (human)) [%] | kinase still bound, per cent of control (ERBB3 (human)) [%] | kinase still bound, per cent of control (BRAF (human)) [%] | kinase still bound, per cent of control (ICK (human)) [%] | kinase still bound, per cent of control (EPHB6 (human)) [%] | kinase still bound, per cent of control (ROCK1 (human)) [%] | other results
CCC(=O)N1CCN(c2ccc(-n3c(=O)ccc4cnc5ccc(-c6cnc7ccccc7c6)cc5c43)cc2C(F)(F)F)CC1 | 94 | 0.6 | 84 |  |  | 6.2 |  | 100 | 96 | 4.6 | 93 | 88 | 58 | 90 | 100 | 44 | 59 | 100 | 80 | 53 | kinase still bound, per cent of control (PRKCI (human)): 85%; kinase still bound, per cent of control (CPK1 (P.falciparum)): 36%; kinase still bound, per cent of control (CASK (human)): 100%; kinase still bound, per cent of control (CDK4 CCND1 (human)): 100%; kinase still bound, per cent of control (MAP2K5 (human)): 100%; kinase still bound, per cent of control (VRK2 (human)): 100%; kinase still bound, per cent of control (NEK3 (human)): 100%; kinase still bound, per cent of control [3]: 0.7%; kinase still bound, per cent of control (TAOK2 (human)): 84%; kinase still bound, per cent of control (SGK3 (human)): 100%; kinase still bound, per cent of control [4]: 1%; kinase still bound, per cent of control (CDKL1 (human)): 100%; kinase still bound, per cent of control (NIM1 (human)): 84%; kinase still bound, per cent of control (IRAK4 (human)): 90%; kinase still bound, per cent of control (DYRK1A (human)): 71%; kinase still bound, per cent of control (HUNK (human)): 91%; kinase still bound, per cent of control (MAP3K13 (human)): 100%
